Laboratory results from patent publication US5039665A, “Use of fructose-1,6-diphosphate for treating myocardial infarction” (priority 1990, dated 1991).

How the values were obtained:
[1] = system: heart preparation; conditions: infusion of Locke's solution plus sugar; cited from earlier work
[2] = system: dog WBC; assay: carbohydrate metabolism of dog white blood cells in vitro; format: cell-based
Method: The tests were also conducted to investigate the effect of FDP on white blood cells (WBC) on metabolism in vitro. […] It was experimentally assessed whether FDP can stimulate the carbohydrate metabolism of these cells at rest. A similar phenomenon observed for normal human erythrocytes, sickle cells and dog erythrocytes. From healthy humans and dogs, the white blood cells were separated and incubated at 37° Celsius for various periods of time with FDP, glucose and normal saline. At the end of incubation, ATP and intermediates of the glycolytic pathway were assessed. […] The pyruvic acid concentration in dog WBC incubated with FDP was 10 times greater than those incubated in glucose while those for the human WBC, this difference was of much lesser degree (X2). The dihydroxyacetone (DHA) in the human and canine WBC was 5 to 10 times greater in the FDP incubated than in the glucose ones.

[3] = system: experimental animals and man; assay: antishock activity in experimental animals and in man; conditions: in vivo

Structure (SMILES)	amplitude and frequency of heart beats, lactic acid, pH and potassium during recovery [1]	effect on carbohydrate metabolism [2]	concentration dependence of ATP production ([2]; 5 to 50 mg/ml FDP, no AMP or ADP)	concentration dependence of ATP increase ([2]; AMP or ADP added)	pyruvic acid concentration, FDP versus glucose ([2]; dog WBC)	antishock activity [3]
O=C[C@H](O)[C@@H](O)[C@H](O)[C@H](O)CO [glucose, reference compound]	no significant difference	–	–	–	–	–
O=C(COP(=O)(O)O)[C@@H](O)[C@H](O)[C@H](O)COP(=O)(O)O [FDP, fructose-1,6-diphosphate]	–	profound stimulating effect on the carbohydrate metabolism	independent of the concentration (from 5 to 50 mg/ml), but rather a function of the incubation time	the increase of ATP becomes a function of the FDP concentration	10 times	profound antishock activity in experimental animals and in man
